According to patent US11834453B2, “Substituted pyrimido[5,4-d]pyrimidines as HER2 inhibitors” (Array BioPharma Inc., priority 2020, dated 2023):

Columns and labels:
EGFR = EGFR (Homo sapiens (Human), UniProt P00533); test: ErbB enzyme assay (CisBio HTRF KinEASE-TK), Assay 3; assay type: biochemical
Summary of the method: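 Kinase + 250 nM biotin TK-substrate, 1 mM ATP, cpd (3-fold dil.), HEPES pH 7.4/10 mM MgCl2/0.01% Triton/2% DMSO; 30 min 22 °C. Quench w/ Sa-XL665 + TK-Ab-Cryptate, 1 h, HTRF. IC50 = 50 POC on 4PL fit.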

[1] = molecular target: ErbB2 insYVMA (HER2-YVMA, SEQ ID NO: 2) (Homo sapiens, UniProt P04626, INS775YVMA/P1170A); test: biochemical; conditions: ErbB2 insYVMA enzyme assay; read-out: Assay 1 IC50
ErbB2 WT = ErbB2 WT (Homo sapiens (Human), UniProt P04626); test: ErbB enzyme assay (CisBio HTRF KinEASE-TK), Assay 2; assay type: biochemical
Summary of the method: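 ErbB2 phosphorylates 250 nM biotin-TK substrate at 1 mM ATP in 25 mM HEPES pH 7.4, 10 mM MgCl2, 0.01% Triton X-100 and 2% DMSO, for 30 min at 22 °C. Product is detected by HTRF with Sa-XL665 and TK-Ab-Cryptate. Percent of control is set by DMSO-only wells and pre-quenched wells.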

EGFR wild type (EGFR WT) = EGFR wild type (EGFR WT) (Homo sapiens (Human), UniProt P00533); test: Cellular phosphorylation assay, EGF-stimulated EGFR phosphorylation in engineered NIH 3T3 cells, Phospho-EGFR DuoSet IC ELISA, Assay 5; assay type: cell-based
Summary of the method: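 NIH 3T3 cells expressing EGFR WT (20,000/well, attached overnight) were exposed to serially diluted compound for 1 h at 37 °C, then stimulated with 100 ng/ml rEGF for 10 min. Phospho-EGFR in lysates measured by sandwich ELISA optical density; IC50 from curves.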

[2] = molecular target: ErbB2 with Exon 20 YVMA insertion (HER2-YVMA) (Homo sapiens (Human), UniProt P04626, INS775YVMA); test: Cellular phosphorylation assay, constitutive ErbB2 phosphorylation (Y1196) in engineered NIH 3T3 cells, Assay 4; assay type: cell-based
Summary of the method: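 Engineered NIH 3T3 cells expressing HER2-YVMA treated with compounds 1 h at 37 °C, then formaldehyde-fixed and methanol-permeabilized. pErbB2 Y1196 detected by in-cell infrared immunofluorescence, normalized to GAPDH. IC50 from the normalized curves.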

ErbB2 with Exon 20 YVMA insertion (HER2-YVMA), sequence (P04626 other isoform, or with tags, fused parts or gaps ins YVMA behind 775): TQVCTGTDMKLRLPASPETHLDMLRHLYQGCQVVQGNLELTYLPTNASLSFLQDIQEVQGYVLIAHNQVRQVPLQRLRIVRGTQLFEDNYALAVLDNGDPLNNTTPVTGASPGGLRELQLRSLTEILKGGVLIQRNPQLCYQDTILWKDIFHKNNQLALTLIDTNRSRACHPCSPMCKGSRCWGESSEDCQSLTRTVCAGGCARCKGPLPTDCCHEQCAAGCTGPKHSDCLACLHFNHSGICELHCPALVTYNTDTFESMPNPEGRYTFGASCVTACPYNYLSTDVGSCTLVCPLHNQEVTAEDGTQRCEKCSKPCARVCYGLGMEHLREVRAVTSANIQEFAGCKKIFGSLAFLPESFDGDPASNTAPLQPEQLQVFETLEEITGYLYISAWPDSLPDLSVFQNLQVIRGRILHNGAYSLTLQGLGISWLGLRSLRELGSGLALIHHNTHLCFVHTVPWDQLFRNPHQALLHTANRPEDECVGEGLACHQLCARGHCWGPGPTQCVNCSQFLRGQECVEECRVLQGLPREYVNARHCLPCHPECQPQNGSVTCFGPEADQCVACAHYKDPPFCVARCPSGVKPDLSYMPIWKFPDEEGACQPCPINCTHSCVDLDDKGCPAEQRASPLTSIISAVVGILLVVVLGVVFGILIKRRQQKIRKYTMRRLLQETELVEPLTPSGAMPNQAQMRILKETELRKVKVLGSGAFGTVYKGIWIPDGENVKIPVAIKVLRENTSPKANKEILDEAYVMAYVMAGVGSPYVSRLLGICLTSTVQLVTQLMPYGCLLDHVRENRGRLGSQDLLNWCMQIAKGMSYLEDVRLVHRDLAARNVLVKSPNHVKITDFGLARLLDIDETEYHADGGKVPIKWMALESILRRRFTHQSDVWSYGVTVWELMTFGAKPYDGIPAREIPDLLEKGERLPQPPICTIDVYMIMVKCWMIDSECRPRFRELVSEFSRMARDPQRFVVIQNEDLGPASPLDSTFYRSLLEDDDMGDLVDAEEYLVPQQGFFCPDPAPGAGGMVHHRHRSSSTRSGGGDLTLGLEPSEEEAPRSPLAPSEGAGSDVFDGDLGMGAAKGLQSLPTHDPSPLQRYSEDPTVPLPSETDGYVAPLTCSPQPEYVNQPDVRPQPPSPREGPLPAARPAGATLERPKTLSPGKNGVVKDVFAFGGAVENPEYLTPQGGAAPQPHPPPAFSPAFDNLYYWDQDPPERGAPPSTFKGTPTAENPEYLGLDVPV
ErbB2 WT, sequence (P04626 23-1255): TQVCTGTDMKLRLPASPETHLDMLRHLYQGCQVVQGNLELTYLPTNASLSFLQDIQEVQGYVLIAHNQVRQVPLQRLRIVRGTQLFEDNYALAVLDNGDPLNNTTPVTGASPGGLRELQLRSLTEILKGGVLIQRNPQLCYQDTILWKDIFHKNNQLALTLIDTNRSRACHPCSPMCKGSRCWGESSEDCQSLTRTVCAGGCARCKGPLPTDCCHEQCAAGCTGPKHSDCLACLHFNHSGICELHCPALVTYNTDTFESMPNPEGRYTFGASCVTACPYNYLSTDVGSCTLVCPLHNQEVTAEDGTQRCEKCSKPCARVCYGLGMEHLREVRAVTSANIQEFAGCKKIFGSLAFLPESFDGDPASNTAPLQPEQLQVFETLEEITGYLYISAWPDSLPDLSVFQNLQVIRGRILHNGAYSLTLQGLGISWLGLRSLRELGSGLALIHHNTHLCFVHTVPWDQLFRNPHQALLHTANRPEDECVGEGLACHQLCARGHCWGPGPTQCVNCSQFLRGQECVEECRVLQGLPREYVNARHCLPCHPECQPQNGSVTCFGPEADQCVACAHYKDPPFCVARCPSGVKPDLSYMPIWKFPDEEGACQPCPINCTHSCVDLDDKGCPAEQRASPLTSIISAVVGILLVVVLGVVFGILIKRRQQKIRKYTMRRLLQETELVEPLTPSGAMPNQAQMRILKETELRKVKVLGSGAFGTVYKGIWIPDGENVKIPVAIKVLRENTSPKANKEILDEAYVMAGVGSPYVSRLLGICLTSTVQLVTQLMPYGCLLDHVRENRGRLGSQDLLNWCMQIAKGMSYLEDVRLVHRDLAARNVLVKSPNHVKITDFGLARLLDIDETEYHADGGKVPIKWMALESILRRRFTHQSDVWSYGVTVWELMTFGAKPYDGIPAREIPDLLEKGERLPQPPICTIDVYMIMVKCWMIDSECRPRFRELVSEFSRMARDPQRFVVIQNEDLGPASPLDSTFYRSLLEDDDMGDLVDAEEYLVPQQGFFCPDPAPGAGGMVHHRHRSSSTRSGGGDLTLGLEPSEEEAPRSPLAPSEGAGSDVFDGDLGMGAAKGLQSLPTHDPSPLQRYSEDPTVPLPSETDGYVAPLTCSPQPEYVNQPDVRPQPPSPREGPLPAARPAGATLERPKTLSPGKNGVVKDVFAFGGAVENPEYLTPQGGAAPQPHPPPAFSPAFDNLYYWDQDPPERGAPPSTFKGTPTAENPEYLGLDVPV
ErbB2 insYVMA (HER2-YVMA, SEQ ID NO: 2), sequence (P04626 with tags, fused parts or gaps INS775YVMA/P1170A limits assumed): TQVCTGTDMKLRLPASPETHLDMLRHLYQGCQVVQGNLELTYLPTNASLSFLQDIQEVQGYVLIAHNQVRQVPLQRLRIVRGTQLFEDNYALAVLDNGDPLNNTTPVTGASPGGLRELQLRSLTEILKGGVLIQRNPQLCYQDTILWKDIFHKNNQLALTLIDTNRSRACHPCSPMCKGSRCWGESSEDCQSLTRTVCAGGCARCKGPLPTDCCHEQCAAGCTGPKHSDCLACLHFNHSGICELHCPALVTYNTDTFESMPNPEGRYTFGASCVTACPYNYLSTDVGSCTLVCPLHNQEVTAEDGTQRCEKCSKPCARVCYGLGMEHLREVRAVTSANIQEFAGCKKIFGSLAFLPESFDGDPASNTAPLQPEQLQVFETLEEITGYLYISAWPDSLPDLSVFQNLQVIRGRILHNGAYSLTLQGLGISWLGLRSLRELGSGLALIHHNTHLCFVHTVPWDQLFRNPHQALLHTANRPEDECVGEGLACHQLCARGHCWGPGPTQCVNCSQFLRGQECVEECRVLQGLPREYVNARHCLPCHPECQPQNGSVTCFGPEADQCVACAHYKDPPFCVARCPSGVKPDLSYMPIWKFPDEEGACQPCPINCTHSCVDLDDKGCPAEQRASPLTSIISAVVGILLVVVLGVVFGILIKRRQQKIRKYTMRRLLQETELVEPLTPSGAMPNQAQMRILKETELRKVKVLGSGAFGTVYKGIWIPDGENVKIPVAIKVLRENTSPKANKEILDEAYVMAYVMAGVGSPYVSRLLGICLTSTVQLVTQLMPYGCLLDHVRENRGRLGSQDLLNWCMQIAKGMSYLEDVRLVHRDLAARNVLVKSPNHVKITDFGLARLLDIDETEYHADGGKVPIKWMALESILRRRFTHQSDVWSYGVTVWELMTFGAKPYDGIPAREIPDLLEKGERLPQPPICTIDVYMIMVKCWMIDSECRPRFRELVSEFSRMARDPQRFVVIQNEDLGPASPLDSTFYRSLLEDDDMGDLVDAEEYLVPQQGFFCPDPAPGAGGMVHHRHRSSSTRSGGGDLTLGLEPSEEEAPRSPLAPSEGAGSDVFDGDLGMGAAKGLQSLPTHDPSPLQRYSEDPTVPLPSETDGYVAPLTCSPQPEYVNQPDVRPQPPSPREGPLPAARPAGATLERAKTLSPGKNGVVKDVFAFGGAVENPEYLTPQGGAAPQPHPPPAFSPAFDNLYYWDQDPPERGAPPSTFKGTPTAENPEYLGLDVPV
EGFR, sequence (P00533 25-1210): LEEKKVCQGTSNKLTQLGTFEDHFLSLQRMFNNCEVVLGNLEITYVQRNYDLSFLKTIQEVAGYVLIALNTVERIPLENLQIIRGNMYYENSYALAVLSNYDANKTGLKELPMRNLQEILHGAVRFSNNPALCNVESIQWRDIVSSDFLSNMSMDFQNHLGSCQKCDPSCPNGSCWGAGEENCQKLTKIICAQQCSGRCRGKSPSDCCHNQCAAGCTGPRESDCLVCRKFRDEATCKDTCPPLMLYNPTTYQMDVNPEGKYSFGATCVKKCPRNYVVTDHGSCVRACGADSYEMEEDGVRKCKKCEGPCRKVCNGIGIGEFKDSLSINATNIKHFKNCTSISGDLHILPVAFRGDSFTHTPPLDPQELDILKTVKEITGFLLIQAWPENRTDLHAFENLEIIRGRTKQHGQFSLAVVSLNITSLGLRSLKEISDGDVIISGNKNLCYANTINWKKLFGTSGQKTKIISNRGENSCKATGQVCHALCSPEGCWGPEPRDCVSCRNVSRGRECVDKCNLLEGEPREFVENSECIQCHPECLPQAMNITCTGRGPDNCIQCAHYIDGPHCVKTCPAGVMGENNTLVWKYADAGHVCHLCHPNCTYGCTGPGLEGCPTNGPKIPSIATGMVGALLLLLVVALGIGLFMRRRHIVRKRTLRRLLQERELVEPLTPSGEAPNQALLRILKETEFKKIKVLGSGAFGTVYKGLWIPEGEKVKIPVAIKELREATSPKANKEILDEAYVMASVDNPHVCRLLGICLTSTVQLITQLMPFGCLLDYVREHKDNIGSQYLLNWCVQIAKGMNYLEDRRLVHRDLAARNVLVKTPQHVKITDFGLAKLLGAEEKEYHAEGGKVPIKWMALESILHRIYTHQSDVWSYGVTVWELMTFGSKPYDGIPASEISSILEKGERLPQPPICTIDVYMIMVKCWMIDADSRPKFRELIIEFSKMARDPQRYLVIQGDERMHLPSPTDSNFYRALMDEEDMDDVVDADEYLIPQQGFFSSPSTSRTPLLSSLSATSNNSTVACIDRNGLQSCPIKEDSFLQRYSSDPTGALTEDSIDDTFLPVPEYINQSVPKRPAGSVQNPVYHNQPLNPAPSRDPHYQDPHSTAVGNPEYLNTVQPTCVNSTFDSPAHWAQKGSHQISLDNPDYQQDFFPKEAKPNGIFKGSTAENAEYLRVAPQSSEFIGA

| Structure (SMILES) | IC50 (EGFR) | IC50 [1] | IC50 (ErbB2 WT) | IC50 (EGFR wild type (EGFR WT)) | IC50 [2] |
| --- | --- | --- | --- | --- | --- |
| Cc1cc(Nc2ncnc3cnc(N(C)[C@@H]4CCOC4)nc23)ccc1Oc1ccn2ncnc2c1 [Example 427] | 7.94 µM | 0.025 µM | 0.0431 µM | ≥ 5 µM | 0.121 µM |
| O[C@H]1CN(c2ncc3ncnc(Nc4ccc(Oc5ccn6ncnc6c5)c(Cl)c4)c3n2)CC[C@@H]1F [Example 338] | 1.99 µM | 0.0132 µM | 0.0128 µM | ≥ 5 µM | 0.0652 µM |
| Cc1c(Oc2ccn3ncnc3c2)ccc(Nc2ncnc3cnc(N4CC[C@H](O)C4)nc23)c1F [Example 311] | ≥ 10 µM | 0.0753 µM | 0.0763 µM | ≥ 5 µM | 3.33 µM |
| Cc1c(Oc2ccc3c(c2)ncn3C)ccc(Nc2ncnc3cnc(N4CC[C@H]4C(C)(C)O)nc23)c1F [Example 453] | ≥ 10 µM | 0.0646 µM | 0.474 µM | ≥ 5 µM | 0.383 µM |
| Cc1c(Oc2ccn3ncnc3c2)ccc(Nc2ncnc3cnc(N4CC[C@](C)(O)C4)nc23)c1F [Example 307] | ≥ 10 µM | 0.0283 µM | 0.0543 µM | ≥ 5 µM | 1.15 µM |
| Cn1cnc2cc(Oc3ccc(Nc4ncnc5cnc(N6CCOC(C)(C)C6)nc45)cc3Cl)ccc21 [Example 448] | ≥ 10 µM | 0.0759 µM | 0.143 µM | ≥ 5 µM | 0.0408 µM |
| O[C@@H]1C[C@H]2C[C@@H]1CN2c1ncc2ncnc(Nc3ccc(Oc4ccn5ncnc5c4)c(Cl)c3)c2n1 [Example 332] | ≥ 10 µM | 0.0486 µM | 0.0505 µM | ≥ 5 µM | 0.186 µM |
| O=S1(=O)CC[C@@H]2CN(c3ncc4ncnc(Nc5ccc(Oc6ccn7ncnc7c6)c(Cl)c5)c4n3)C[C@@H]21 [Example 433] | ≥ 10 µM | 0.0293 µM | 0.0674 µM | ≥ 5 µM | 0.385 µM |
| Cc1cc(Nc2ncnc3cnc(N4CCC4)nc23)ccc1Oc1ccn2ncnc2c1 [Example 379] | ≥ 10 µM | 0.0257 µM | 0.0821 µM | ≥ 5 µM | 0.356 µM |
| CON1CCC(Nc2ncc3ncnc(Nc4ccc(Oc5ccc6c(c5)ncn6C)c(C)c4)c3n2)C1 (centres unmarked) [Example 220, N2-(1-methoxpyrrolidin-3-yl)-N8-(3-methyl-4-((1-methyl-1H-benzo[d]imidazol-5-yl)oxy)phenyl)pyrimido[5,4-d]pyrimidine-2,8-diamine] | 1.52 µM | 0.0093 µM | 0.0121 µM | ≥ 5 µM | 0.008 µM |
| Cc1cc(Nc2ncnc3cnc(N4C[C@@H](O)C(C)(C)C4)nc23)ccc1Oc1ccc2c(c1)ncn2C [Example 468] | ≥ 10 µM | 0.0391 µM | 0.13 µM | ≥ 5 µM | 0.0872 µM |
| N#CC[C@H]1CCN(c2ncc3ncnc(Nc4ccc(Oc5ccn6ncnc6c5)c(Cl)c4)c3n2)C1 [Example 406] | 8.28 µM | 0.0166 µM | 0.0323 µM | ≥ 5 µM | 0.0636 µM |
| Cc1cc(Nc2ncnc3cnc(N4CCN5CCOC[C@H]5C4)nc23)ccc1Oc1ccn2ncnc2c1 [Example 417] | 6.86 µM | 0.0314 µM | 0.0621 µM | ≥ 5 µM | 0.0626 µM |
| Cc1c(Oc2ccn3ncnc3c2)ccc(Nc2ncnc3cnc(N(C)CC4(O)CCC4)nc23)c1F [Example 315] | 3.69 µM | 0.0393 µM | 0.0648 µM | ≥ 5 µM | 1.49 µM |
| Clc1cc(Nc2ncnc3cnc(N4CC[C@@]5(CCOC5)C4)nc23)ccc1Oc1ccn2ncnc2c1 [Example 356] | ≥ 10 µM | 0.0361 µM | 0.0928 µM | ≥ 5 µM | 0.27 µM |
| Cc1cc(Nc2ncnc3cnc(N(C)[C@H]4CN(C)C[C@H]4F)nc23)ccc1Oc1ccc2c(c1)ncn2C [Example 99, N2-((3S,4R)-4-fluoro-1-methylpyrrolidin-3-yl)-N2-methyl-N8-(3-methyl-4-((1-methyl-1H-benzo[d]imidazol-5-yl)oxy)phenyl)pyrimido[5,4-d]pyrimidine-2,8-diamine] | 6.47 µM | 0.0171 µM | 0.018 µM | ≥ 5 µM | 0.0445 µM |
